Results reported in PubChem BioAssay (NCI).
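Where inhibition never reached the appropriate level, the endpoint shown equals the highest concentration tested. Otherwise, values were interpolated linearly from a five-concentration, 48-hour dose response in 96-well plates. TGI: total growth inhibition.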 Where a SMILES comes first, the peptide text is derived from it. The star is where a group is joined. Pentanoyl = CCCCC(=O)*; Boc = CC(C)(C)OC(=O)*

Legend:
Experiment in all cases: NCI-60 cell line screen, 48 h
DU-145 prostate = system: DU-145 prostate
SF-539 CNS = system: SF-539 CNS
HT29 colon = system: HT29 colon
LOX IMVI melanoma = system: LOX IMVI melanoma
HCC-2998 colon = system: HCC-2998 colon
SK-MEL-2 melanoma = system: SK-MEL-2 melanoma
HCT-15 colon = system: HCT-15 colon
OVCAR-8 ovarian = system: OVCAR-8 ovarian
OVCAR-3 ovarian = system: OVCAR-3 ovarian
CAKI-1 renal = system: CAKI-1 renal
SF-268 CNS = system: SF-268 CNS
RXF 393 renal = system: RXF 393 renal
SNB-19 CNS = system: SNB-19 CNS
M14 melanoma = system: M14 melanoma
RPMI-8226 leukemia = system: RPMI-8226 leukemia
KM12 colon = system: KM12 colon
IGROV1 ovarian = system: IGROV1 ovarian
BT-549 breast = system: BT-549 breast
SW-620 colon = system: SW-620 colon
786-0 renal = system: 786-0 renal

Structure (SMILES) | TGI (DU-145 prostate) [µM] | TGI (SF-539 CNS) [µM] | TGI (HT29 colon) [µM] | TGI (LOX IMVI melanoma) [µM] | TGI (HCC-2998 colon) [µM] | TGI (SK-MEL-2 melanoma) [µM] | TGI (HCT-15 colon) [µM] | TGI (OVCAR-8 ovarian) [µM] | TGI (OVCAR-3 ovarian) [µM] | TGI (CAKI-1 renal) [µM] | TGI (SF-268 CNS) [µM] | TGI (RXF 393 renal) [µM] | TGI (SNB-19 CNS) [µM] | TGI (M14 melanoma) [µM] | TGI (RPMI-8226 leukemia) [µM] | TGI (KM12 colon) [µM] | TGI (IGROV1 ovarian) [µM] | TGI (BT-549 breast) [µM] | TGI (SW-620 colon) [µM] | TGI (786-0 renal) [µM]
CC(=O)Nc1ccc(CNc2cc(=O)n(C)c(=O)[nH]2)cc1 | > 100 | > 100 | > 100 | > 100 | > 100 | > 100 | > 100 | > 100 | > 100 | > 100 | > 100 | > 100 | > 100 | > 100 | > 100 | > 100 | > 100 | > 100 | > 100 | > 100
CCOC(=O)[C@H](O)[C@@H](O)C(=O)NCc1ccc(C(=O)c2ccccc2)cc1 | > 100 | > 100 | > 100 | > 100 | > 100 | > 100 | > 100 | > 100 | > 100 | > 100 | > 100 | > 100 | > 100 | > 100 | > 100 | > 100 | > 100 | > 100 | > 100 | > 100
O=C(NNc1ccnc2cc(Cl)ccc12)/C(=C\c1ccccc1Cl)NC(=O)c1ccccc1 | > 100 | 72.7 | > 100 | 32 | > 100 | 46.1 | > 100 | 43.5 | 38.2 | > 100 | 85.1 | > 100 | > 100 | > 100 | > 100 | 51.6 | > 100 | 87.8 | > 100 | > 100
CCCCC(=O)Oc1ccc(CC(NC(=O)OC(C)(C)C)C(=O)NC(C)C(=O)NC(Cc2ccccc2)C(=O)NCC(N)=O)cc1 (centres undefined) (Boc-Y(Pentanoyl)AFG-NH2; configuration not given here) | > 100 | > 100 | 40 | 30.7 | 38.8 | 41.1 | > 100 | 62.5 | 39.2 | > 100 | > 100 | > 100 | 59 | > 100 | 44.8 | 47.8 | 53.7 | 55.7 | > 100 | > 100
N#Cc1c(NCCc2ccc(F)cc2)c2ccccc2n2c1nc1ccccc12 | 98.1 | > 100 | 91.5 | > 100 | > 100 | > 100 | > 100 | 25.4 | 66.4 | 29.1 | 96.5 | 65.7 | 51 | > 100 | > 100 | > 100 | 39.9 | 72.6 | > 100 | 17.6
COc1cc(C=C2N=C(c3ccccc3)N(n3c(-c4ccccc4)nc4ccccc4c3=O)C2=O)cc(OC)c1OC | 79.9 | 45.3 | 78.1 | 41.3 | 89.6 | 43.4 | > 100 | 51.4 | 54 | > 100 | 69 | 39.2 | 72.3 | 75.7 | – | 46.3 | 94.4 | 32.5 | > 100 | 45.9
